In patent publication US20240092790A1, “DIHYDROFUROPYRIDINE DERIVATIVES AS RHO- KINASE INHIBITORS” (CHIESI FARMACEUTICI S.P.A., priority 2020, published 2024):
pKi: −log10 of the molar value.

Tests used:
Type in all cases: biochemical
[1] = target: ROCK1 (Homo sapiens, UniProt Q13464); test: In vitro inhibitory activity assay ROCK1 (ADP-Glo); details: ATP 200 μM, Cheng-Prusoff; read-out: ROCK 1 (Ki, range of activity)
Experimental: (§1) In Vitro Inhibitory Activity Assay Description ROCK1 and ROCK2
(§2) The effectiveness of compounds of the present invention to inhibit Rho kinase activity can be determined in a 10 μl assay containing 40 mM Tris pH7.5, 20 mM MgCl2 0.1 mg/mL BSA, 50 μM DTT and 2.5 μM peptide substrate (Myelin Basic Protein) using an ADP-Glo kit (Promega). Compounds were dissolved in DMSO such that the final concentration of DMSO was 1% in the assay. All reactions/incubations are performed at 25° C. Compound (2 ul) and either Rho kinase 1 or 2 (4 μl) were mixed and incubated for 30 mins. Reactions were initiated by addition of ATP (4 μl) such that the final concentration of ATP in the assay was 200 μM. After a 1 hour incubation 10 μl of ADP-Glo Reagent was added and after a further 1 hour incubation 20 ul of Kinase Detection Buffer was added and the mixture incubated for a further 45 minutes. The luminescent signal was measured on a luminometer. […] Compounds were tested in dose-response format and the inhibition of kinase activity was calculated at each concentration of compound. To determine the IC50 (concentration of compound required to inhibit 50% of the enzyme activity) data were fit to a plot of % inhibition vs Log 10 compound concentration using a sigmoidal fit with a variable slope and fixing the maximum to 100% and the minimum to 0%. To determine the Ki values the Cheng-Prusoff equation was utilized (Ki=IC50/(1+[S]/Km).

[2] = target: ROCK2 (Homo sapiens, UniProt O75116); test: In vitro inhibitory activity assay ROCK2 (ADP-Glo); details: ATP 200 μM, Cheng-Prusoff; read-out: ROCK2 (Ki, range of activity)
Chain of ROCK2 (O75116 whole entry): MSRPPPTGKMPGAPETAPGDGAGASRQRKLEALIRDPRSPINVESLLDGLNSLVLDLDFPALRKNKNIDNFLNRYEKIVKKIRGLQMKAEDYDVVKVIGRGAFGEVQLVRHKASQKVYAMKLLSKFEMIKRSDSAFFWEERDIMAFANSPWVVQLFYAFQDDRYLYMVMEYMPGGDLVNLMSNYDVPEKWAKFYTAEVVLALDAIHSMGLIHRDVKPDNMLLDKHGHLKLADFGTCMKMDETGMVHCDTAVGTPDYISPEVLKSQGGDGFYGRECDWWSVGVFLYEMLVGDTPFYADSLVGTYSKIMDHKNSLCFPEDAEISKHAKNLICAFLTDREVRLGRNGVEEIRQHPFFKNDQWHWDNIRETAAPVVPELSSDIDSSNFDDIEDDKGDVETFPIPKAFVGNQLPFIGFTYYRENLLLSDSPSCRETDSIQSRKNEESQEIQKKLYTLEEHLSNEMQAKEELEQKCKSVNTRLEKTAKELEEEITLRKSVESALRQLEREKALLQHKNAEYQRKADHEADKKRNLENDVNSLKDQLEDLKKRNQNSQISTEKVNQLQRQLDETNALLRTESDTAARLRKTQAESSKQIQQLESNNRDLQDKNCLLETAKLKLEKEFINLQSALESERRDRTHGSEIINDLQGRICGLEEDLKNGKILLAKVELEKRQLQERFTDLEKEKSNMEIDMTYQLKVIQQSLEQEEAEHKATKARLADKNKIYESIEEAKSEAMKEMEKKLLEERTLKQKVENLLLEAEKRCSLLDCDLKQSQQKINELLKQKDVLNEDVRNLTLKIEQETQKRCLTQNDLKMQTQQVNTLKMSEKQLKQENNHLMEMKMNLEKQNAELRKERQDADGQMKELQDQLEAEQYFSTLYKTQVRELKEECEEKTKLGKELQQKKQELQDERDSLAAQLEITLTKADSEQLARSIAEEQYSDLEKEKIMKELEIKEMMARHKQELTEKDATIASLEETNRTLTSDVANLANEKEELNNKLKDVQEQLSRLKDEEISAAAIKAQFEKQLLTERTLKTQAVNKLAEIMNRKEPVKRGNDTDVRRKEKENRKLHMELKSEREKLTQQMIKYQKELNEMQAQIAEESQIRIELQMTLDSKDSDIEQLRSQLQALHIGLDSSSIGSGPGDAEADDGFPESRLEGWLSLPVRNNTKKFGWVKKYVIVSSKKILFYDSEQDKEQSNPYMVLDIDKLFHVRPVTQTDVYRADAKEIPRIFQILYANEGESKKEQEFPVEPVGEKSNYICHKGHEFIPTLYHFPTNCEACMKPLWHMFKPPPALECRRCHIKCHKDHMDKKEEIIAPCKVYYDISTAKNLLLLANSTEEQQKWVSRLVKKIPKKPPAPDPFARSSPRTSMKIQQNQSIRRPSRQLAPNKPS
Experimental: as §1, §2

[3] = target: PKA (Homo sapiens, UniProt P17612); test: In vitro inhibitory activity assay for PKA (ADP-Glo), reported as selectivity ratio vs ROCK2; details: Ki value for PKA divided by Ki value of ROCK2
Experimental: In Vitro Inhibitory Activity Assay Description for PKA
The effectiveness of compounds of the present invention to inhibit PKA activity can be determined in a 10 μl assay containing 40 mM Tris pH7.5, 20 mM MgCl2 0.1 mg/ml BSA, 50 μM DTT and 260 μM peptide substrate (kemptide) using an ADP-Glo kit (Promega). Compounds were dissolved in DMSO such that the final concentration of DMSO was 1% in the assay. All reactions/incubations are performed at 25° C. Compound and PKA enzyme (6 μl) were mixed and incubated for 30 mins. Reactions were initiated by addition of ATP (4 μl) such that the final concentration of ATP in the assay was 10 μM. After a 30 minute incubation 10p of ADP-Glo Reagent was added and after a further 1 hour incubation 20 μl of Kinase Detection Buffer was added and the mixture incubated for a further 45 minutes. The luminescent signal was measured on a luminometer. […] Compounds were tested in dose-response format and the inhibition of kinase activity was calculated at each concentration of compound. To determine the IC50 (concentration of compound required to inhibit 50% of the enzyme activity) data were fit to a plot of % inhibition vs Log10 compound concentration using a sigmoidal fit with a variable slope and fixing the maximum to 100% and the minimum to 0%. To determine the Ki values the Cheng-Prusoff equation was utilized (Ki=IC50/(1+[S]/Km).
In vitro inhibitory activities for PKA were reported as selectivity ratio vs. ROCK-2.

Chain of ROCK1 (Q13464 whole entry): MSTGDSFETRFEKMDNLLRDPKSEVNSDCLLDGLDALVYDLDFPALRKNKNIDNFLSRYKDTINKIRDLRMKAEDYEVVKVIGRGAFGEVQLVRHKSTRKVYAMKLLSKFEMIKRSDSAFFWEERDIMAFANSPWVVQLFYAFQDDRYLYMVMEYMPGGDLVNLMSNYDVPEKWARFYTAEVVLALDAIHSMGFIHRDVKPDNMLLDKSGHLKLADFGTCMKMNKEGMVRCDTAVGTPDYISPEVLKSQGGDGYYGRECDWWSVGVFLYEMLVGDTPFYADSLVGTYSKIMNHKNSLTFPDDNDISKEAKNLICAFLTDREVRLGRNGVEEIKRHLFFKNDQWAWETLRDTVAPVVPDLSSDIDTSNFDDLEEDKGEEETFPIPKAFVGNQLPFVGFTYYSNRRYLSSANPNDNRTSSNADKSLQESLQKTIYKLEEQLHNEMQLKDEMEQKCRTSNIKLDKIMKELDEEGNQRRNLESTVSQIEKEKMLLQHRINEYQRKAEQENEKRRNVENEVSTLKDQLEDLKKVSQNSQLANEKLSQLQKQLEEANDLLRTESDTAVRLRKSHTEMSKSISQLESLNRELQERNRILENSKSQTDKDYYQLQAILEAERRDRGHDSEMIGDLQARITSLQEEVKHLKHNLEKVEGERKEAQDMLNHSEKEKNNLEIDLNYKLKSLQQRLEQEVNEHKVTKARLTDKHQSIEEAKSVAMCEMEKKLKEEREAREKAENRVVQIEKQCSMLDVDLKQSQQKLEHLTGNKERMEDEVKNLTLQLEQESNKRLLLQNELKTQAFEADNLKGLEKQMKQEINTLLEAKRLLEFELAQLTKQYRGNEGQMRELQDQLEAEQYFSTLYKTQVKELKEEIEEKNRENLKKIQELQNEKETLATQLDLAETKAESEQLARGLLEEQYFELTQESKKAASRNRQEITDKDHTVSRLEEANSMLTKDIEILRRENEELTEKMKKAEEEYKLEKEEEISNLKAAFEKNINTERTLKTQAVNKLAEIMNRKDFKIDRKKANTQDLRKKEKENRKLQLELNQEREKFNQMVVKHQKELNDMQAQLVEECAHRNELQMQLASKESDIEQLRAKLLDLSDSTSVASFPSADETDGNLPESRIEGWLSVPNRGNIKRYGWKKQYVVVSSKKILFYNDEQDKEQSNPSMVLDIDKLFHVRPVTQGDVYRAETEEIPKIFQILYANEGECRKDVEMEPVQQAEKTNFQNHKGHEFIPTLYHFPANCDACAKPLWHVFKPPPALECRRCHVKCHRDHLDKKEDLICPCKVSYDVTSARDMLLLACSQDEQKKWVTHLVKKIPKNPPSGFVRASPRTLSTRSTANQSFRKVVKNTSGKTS

| SMILES | pKi [1] | pKi [2] | Ratio (PKA/ROCK2) [3] |
| --- | --- | --- | --- |
| CC1(NC(=O)c2cccc(CNc3ncc(-c4ccnc(N)n4)c4c3CCO4)c2)CC1 [Example 22, 3-(((7-(2-Aminopyrimidin-4-yl)-2,3-dihydrofuro[3,2-c]pyridin-4-yl)amino)methyl)-N-(1-methylcyclopropyl)benzamide] | 7.52 to 8.52 | 7.52 to 8.52 | ** (5≤ratio<10) |
| CC(C)NC(=O)c1cccc(CNc2ncc(-c3ccnc(N)n3)c3c2CCO3)c1 [Example 11, 3-(((7-(2-Aminopyrimidin-4-yl)-2,3-dihydrofuro[3,2-c]pyridin-4-yl)amino)methyl)-N-isopropylbenzamide] | 7.52 to 8.52 | 7.52 to 8.52 | *** (ratio≥10) |
| Nc1nccc(-c2cnc(NCc3cccc(C(=O)N[C@@H]4C[C@@H]4F)c3)c3c2OCC3)n1 [Example 37, 3-(((7-(2-Aminopyrimidin-4-yl)-2,3-dihydrofuro[3,2-c]pyridin-4-yl)amino)methyl)-N-((1R,2S)-2-fluorocyclopropyl)benzamide] | ≥ 8.52 | ≥ 8.52 | *** (ratio≥10) |
| Nc1nccc(-c2cnc(NCc3cccc(C(=O)NCC4CCOCC4)c3)c3c2OCC3)n1 [Example 2, 3-(((7-(2-Aminopyrimidin-4-yl)-2,3-dihydrofuro[3,2-c]pyridin-4-yl)amino)methyl)-N-((tetrahydro-2H-pyran-4-yl)methyl)benzamide] | ≥ 8.52 | ≥ 8.52 | *** (ratio≥10) |
| CC(C)(C)N1CC(CNC(=O)c2cccc(CNc3ncc(-c4ccnc(N)n4)c4c3CCO4)c2)CC1=O (single isomer, unassigned) [Example 33, 3-(((7-(2-Aminopyrimidin-4-yl)-2,3-dihydrofuro[3,2-c]pyridin-4-yl)amino)methyl)-N-((1-(tert-butyl)-5-oxopyrrolidin-3-yl)methyl)benzamide] | ≥ 8.52 | ≥ 8.52 | *** (ratio≥10) |
| COCCCNC(=O)c1ccc(F)c(CNc2ncc(-c3ccnc(N)n3)c3c2CCO3)c1 [Example 62, 3-(((7-(2-Aminopyrimidin-4-yl)-2,3-dihydrofuro[3,2-c]pyridin-4-yl)amino)methyl)-4-fluoro-N-(3-methoxypropyl)benzamide] | < 7.52 | 7.52 to 8.52 | *** (ratio≥10) |
| Nc1nccc(-c2cnc(NCc3cccc(C(=O)NC4CC4F)c3)c3c2OCC3)n1 (single isomer, unassigned) [Example 45, Trans 3-(((7-(2-Aminopyrimidin-4-yl)-2,3-dihydrofuro[3,2-c]pyridin-4-yl)amino)methyl)-N-(2-fluorocyclopropyl)benzamide] | ≥ 8.52 | ≥ 8.52 | *** (ratio≥10) |
| CC(C)OCCCNC(=O)c1cccc(CNc2ncc(-c3ccnc(N)n3)c3c2CCO3)c1 [Example 15, 3-(((7-(2-Aminopyrimidin-4-yl)-2,3-dihydrofuro[3,2-c]pyridin-4-yl)amino)methyl)-N-(3-isopropoxypropyl)benzamide] | ≥ 8.52 | ≥ 8.52 | *** (ratio≥10) |
| Nc1nccc(-c2cnc(NCc3cccc(C(=O)NCC(F)(F)F)c3)c3c2OCC3)n1 [Example 12, 3-(((7-(2-Aminopyrimidin-4-yl)-2,3-dihydrofuro[3,2-c]pyridin-4-yl)amino)methyl)-N-(2,2,2-trifluoroethyl)benzamide] | 7.52 to 8.52 | ≥ 8.52 | *** (ratio≥10) |
| Nc1nccc(-c2cnc(NCc3cccc(C(=O)NC[C@@H]4CCCO4)c3)c3c2OCC3)n1 [Example 43, (S)-3-(((7-(2-Aminopyrimidin-4-yl)-2,3-dihydrofuro[3,2-c]pyridin-4-yl)amino)methyl)-N-((tetrahydrofuran-2-yl)methyl)benzamide] | ≥ 8.52 | ≥ 8.52 | *** (ratio≥10) |
| COCCCNC(=O)c1cc(F)cc(CNc2ncc(-c3ccnc(N)n3)c3c2CCO3)c1 [Example 60, 3-(((7-(2-Aminopyrimidin-4-yl)-2,3-dihydrofuro[3,2-c]pyridin-4-yl)amino)methyl)-5-fluoro-N-(3-methoxypropyl)benzamide] | ≥ 8.52 | ≥ 8.52 | *** (ratio≥10) |
| CNC(=O)c1cccc(CNc2ncc(-c3ccnc(N)n3)c3c2CCO3)c1F [Example 54, 3-(((7-(2-Aminopyrimidin-4-yl)-2,3-dihydrofuro[3,2-c]pyridin-4-yl)amino)methyl)-2-fluoro-N-methylbenzamide] | < 7.52 | 7.52 to 8.52 | *** (ratio≥10) |
| CO[C@H]1C[C@@H](NC(=O)c2cccc(CNc3ncc(-c4ccnc(N)n4)c4c3CCO4)c2)C1 [Example 18, 3-(((7-(2-aminopyrimidin-4-yl)-2,3-dihydrofuro[3,2-c]pyridin-4-yl)amino)methyl)-N-((1s,3s)-3-methoxycyclobutyl)benzamide] | ≥ 8.52 | ≥ 8.52 | *** (ratio≥10) |

The next lines start with the values.

| pKi [1] | pKi [2] | Ratio (PKA/ROCK2) [3] | SMILES |
| --- | --- | --- | --- |
| ≥ 8.52 | ≥ 8.52 | *** (ratio≥10) | Nc1nccc(-c2cnc(NCc3cccc(C(=O)NC[C@H]4CCCO4)c3)c3c2OCC3)n1 [Example 42, (R)-3-(((7-(2-Aminopyrimidin-4-yl)-2,3-dihydrofuro[3,2-c]pyridin-4-yl)amino)methyl)-N-((tetrahydrofuran-2-yl)methyl)benzamide] |
| ≥ 8.52 | ≥ 8.52 | ** (5≤ratio<10) | Nc1nccc(-c2cnc(NCc3cccc(C(=O)NC4CC(F)(F)C4)c3)c3c2OCC3)n1 [Example 10, 3-(((7-(2-Aminopyrimidin-4-yl)-2,3-dihydrofuro[3,2-c]pyridin-4-yl)amino)methyl)-N-(3,3-difluorocyclobutyl)benzamide] |
| ≥ 8.52 | ≥ 8.52 | *** (ratio≥10) | Nc1nccc(-c2cnc(NCc3cccc(C(=O)NCC4CC4)c3)c3c2OCC3)n1 [Example 25, 3-(((7-(2-Aminopyrimidin-4-yl)-2,3-dihydrofuro[3,2-c]pyridin-4-yl)amino)methyl)-N-(cyclopropylmethyl)benzamide] |
| ≥ 8.52 | ≥ 8.52 | *** (ratio≥10) | COC(C)(C)CCNC(=O)c1cccc(CNc2ncc(-c3ccnc(N)n3)c3c2CCO3)c1 [Example 36, 3-(((7-(2-Aminopyrimidin-4-yl)-2,3-dihydrofuro[3,2-c]pyridin-4-yl)amino)methyl)-N-(3-methoxy-3-methylbutyl)benzamide] |
| ≥ 8.52 | ≥ 8.52 | *** (ratio≥10) | COC(C)(C)CNC(=O)c1cccc(CNc2ncc(-c3ccnc(N)n3)c3c2CCO3)c1 [Example 27, 3-(((7-(2-Aminopyrimidin-4-yl)-2,3-dihydrofuro[3,2-c]pyridin-4-yl)amino)methyl)-N-(2-methoxy-2-methylpropyl)benzamide] |
| ≥ 8.52 | ≥ 8.52 | *** (ratio≥10) | CO[C@H]1C[C@H](NC(=O)c2cccc(CNc3ncc(-c4ccnc(N)n4)c4c3CCO4)c2)C1 [Example 41, 3-(((7-(2-Aminopyrimidin-4-yl)-2,3-dihydrofuro[3,2-c]pyridin-4-yl)amino)methyl)-N-((1R,3R)-3-methoxycyclobutyl)benzamide] |
| ≥ 8.52 | ≥ 8.52 | *** (ratio≥10) | COCCCNC(=O)c1cccc(CNc2ncc(-c3ccnc(N)n3)c3c2CCO3)c1 [Example 8, 3-(((7-(2-Aminopyrimidin-4-yl)-2,3-dihydrofuro[3,2-c]pyridin-4-yl)amino)methyl)-N-(3-methoxypropyl)benzamide] |
| ≥ 8.52 | ≥ 8.52 | *** (ratio≥10) | CN1CCOC(CNC(=O)c2cccc(CNc3ncc(-c4ccnc(N)n4)c4c3CCO4)c2)C1 (single isomer, unassigned) [Example 35, 3-(((7-(2-Aminopyrimidin-4-yl)-2,3-dihydrofuro[3,2-c]pyridin-4-yl)amino)methyl)-N-((4-methylmorpholin-2-yl)methyl)benzamide] |
